Each structure is given as a SMILES string.

Broadly, the melting point is the temperature, or range, at which the solid turns liquid. Consider `O=C(c1cc(=O)c2cc(O)ccc2[nH]1)N1CCC(COc2ccccc2)CC1`, for which the melting point was found to be 130 °C.
As for `O=C(CS(=O)c1ccccc1)Nc1c([N+](=O)[O-])cnn1-c1c(Cl)cc(C(F)(F)F)cc1Cl` (configuration not stated), the figure is 108 to 110 °C.
In turn, `N#Cc1c[nH]c(Cl)c1-c1cccc(F)c1` gave a melting point of 158 to 161 °C.
Consider `O=C(c1c(F)cccc1F)N1COCN(c2ccc(SC(F)(F)C(F)(F)C(F)(F)F)cc2F)C1=O`, for which the melting point fell in the range of 44 to 46 °C.
Compound `CC(C)(C)OC(=O)N1CCN(CCOc2cccc3c2c2cccc4c2n3C(c2ccccc2)CO4)CC1` (configuration not stated) displayed a melting point of 72 °C.
Compound `Cc1on(C(=O)N(c2ccc(Cl)cc2)C(C)C)c(=O)c1Cl` gave a melting point of 136 to 137 °C.
For the compound `CC(C)(C)C(=O)OC(COc1cccc2[nH]ncc12)CN1CCC(COc2ccccc2)CC1` (configuration not stated), the melting point lay in the range of 116 to 118 °C.
As to `CC1(C)OCC2OC2CO1` (configuration not stated), the melting point is 70 to 74 °C.
As for `C1=C(c2c[nH]c3ccccc23)CCN(CC2COc3ccc4c(c3O2)OCCC4)C1` (configuration not stated), the melting point came out at 140 °C.
As for `Cc1nc(-n2cc(C(=O)NCc3ccccc3)nn2)sc1C(=O)NCc1ccccc1`, the figure is 178 to 180 °C; as for `CCn1c(=O)[nH]c2cc3c(N4CCN(C(=O)Nc5ccc(Oc6ccccc6)cc5)CC4)ncnc3cc21`, 248 to 251 °C.
Compound `COC(=O)[C@H](Cc1ccc(OS(=O)(=O)C(F)(F)F)c(C2SCCS2)c1)NC(C)=O` returned a melting point of 116 to 118 °C.
In turn, `O=C(O)Cc1ccc(OCc2ccc(F)cc2C(=O)O)cc1` gave a melting point of 195 to 197 °C.
In the case of `COc1cccc(Cn2nc(C(=O)O)c3c2-c2ccc(OCc4cncnc4)cc2CC3)c1`, the melting point is 220 to 221 °C.
With `O=c1[nH]c(=O)c2cn(C3CCCC3)nc2[nH]1`, the melting point is over 300 °C.
Consider `CCn1c2ccccc2c2cc(C=C(C#N)c3cc(C(F)(F)F)cc(C(F)(F)F)c3)ccc21`, for which the melting point fell in the range of 164 to 165 °C.
The compound `CCCCC(=O)N[C@H]1CC[C@H](CCN2CCN(c3nccc4c3OCC4)CC2)CC1` had a melting point of 168 °C.
As for `O=C(Nc1ccc(Cl)c(C(F)(F)F)c1)c1ccccc1SSc1ccccc1C(=O)Nc1ccc(Cl)c(C(F)(F)F)c1`, the figure is 129 to 131 °C; as for `COc1cc2[nH]c3c(OC)c(OC)ccc3c2cc1OC`, 170 to 171 °C; as for `O=C(c1ccccc1)c1ccccc1SSc1ccccc1C(=NO)c1ccccc1`, 191 to 193 °C.
As for `CCCCCCCCCCCCCOCCCCO`, the figure is 26 to 29 °C; as for `COC(=O)C(=O)Cc1ccc(SC)cc1`, 112 to 113 °C; as for `Cc1nc2c(OCc3c(Cl)ccc(N(C)C=O)c3Cl)cccn2c1Br`, 207 to 209 °C.
Compound `COc1cccc2ocnc12` displayed a melting point of 72 to 74 °C.
With `CCN1c2ncccc2C(=O)Nc2c(C)cc(NCCO)nc21`, the melting point was 241 to 244 °C.
`ICCCCCOc1ccc(C2=C(c3ccccc3)CCCc3ccccc32)cc1` had a melting point of 104 to 106 °C.
Compound `CC(=O)OC1CC2C1N(C(C)=O)C(=O)N2C(C)=O` (configuration not stated) had a melting point of 148 to 150 °C.
The compound `COc1cc(C=CC=O)ccc1OCc1csc(-c2ccccc2)n1` showed a melting point of 115 to 116 °C.
Regarding `CC(C)(C)OC(=O)N1CC2CN(C(N)=S)CC2C1` (configuration not stated), the melting point was 188 to 190 °C.
As for `COc1cc(-c2ccc(N)cc2C(=O)NCCNC(=O)c2cc(N)ccc2-c2cc(OC)c(OC)c(OC)c2)cc(OC)c1OC`, the figure is over 250 °C; as for `CC(C)(Cl)c1ccc(-c2ccc(C(C)(C)Cl)cc2)cc1`, 96 to 98 °C.
`COc1cc(CCCn2ccnc2)ccc1OCc1coc(-c2cccs2)n1`: the melting point is 94 to 95 °C.
The compound `CCOC(=O)c1c(C(F)(F)F)nc(C(F)F)c(C(=O)OC)c1N(C)C1CC1` gave a melting point of 37 to 40 °C.
For the compound `CCOC(=O)c1ccc(OC2CCN(C(=O)OC(C)(C)C)CC2)cc1`, the melting point lay within 76 to 78 °C.
As for `C[C@H](O)C(=O)Nc1c(C(=O)c2ccccc2)[nH]c2cc(Cl)ccc12`, the figure is 185 to 190 °C.
As for `CC1CCCN(c2cc3nc(C(C)(C)C)sc3cc2N)C1` (configuration not stated), the melting point lay in the range of 108 to 112 °C.
`O=C(Cc1ccccc1)NC1CN(C(C(=O)O)c2ccc(O)cc2)C1=O` (configuration not stated) registered a melting point of 134 to 141 °C.
The compound `Cc1cc(C(=O)N(C2CCCCC2)C2CCCC2)ccc1Br` registered a melting point of 125 to 127 °C.
`CCOC(=O)c1ccc(Br)c(OCC)c1N(CC)S(C)(=O)=O` returned a melting point of 43 to 45 °C.
`Cc1cc(S(=O)(=O)NCC(O)(CO)c2ccccc2)ccc1Cl` (configuration not stated) yielded a melting point of 105 to 106 °C.
`COc1ccc(CC2=Cc3ncccc3Nc3cccnc32)cc1` showed a melting point of 124 to 127 °C.
With `CCOC(=O)CCCNC(=O)c1cc(Br)no1`, the melting point lay in the range of 72 to 73 °C.
`COc1cccc(CNc2ncnc3c2sc2nc(N(C)C)c4c(c23)CC(C)(C)OC4)c1OC` gave a melting point of 89.9 to 90.7 °C.
As for `O=C(OC1CCCCC1=O)c1ccccc1` (configuration not stated), the melting point was in the range of 81 to 83 °C.
As for `CCOC(=O)CN1C(=O)c2cccc3c(Cl)ccc1c23`, the melting point fell in the range of 138 to 140 °C.
For the compound `CCOC(=O)C1=C(N)NC(C)=C(C(=O)OC)C1c1cc([N+](=O)[O-])ccc1Cl` (configuration not stated), the melting point is 124 °C.
As for `Cc1cc(N2CCN(c3ccccc3)CC2)c2c(N)c(C(N)=O)sc2n1`, the figure is 247 to 250 °C.
As for `Cc1nc(-c2cccc(CN3C(=O)C4(COc5cc6c(cc54)CCO6)c4ccccc43)c2)no1` (configuration not stated), the figure is 209 to 213 °C; as for `N#Cc1cnn(-c2ccc(Cl)c(Cl)c2Cl)c1C=CC(=O)O`, 215 to 219 °C.
Turning to `CC(C)[C@H](N)C(=O)OCc1nc2c(N)nc3ccccc3c2n1CCCCNS(C)(=O)=O`, the melting point was 161 to 163 °C.
For `COc1cc(OC)nc(NC(=O)NS(=O)(=O)Cc2ccccc2-c2nnc(SC)o2)n1`, the melting point lay within 174 to 177 °C.
`O=C(Nc1ccccc1S(=O)(=O)c1ccccc1)N[C@@H](Cc1ccc(Nc2nccc3cnccc23)cc1)C(=O)O` showed a melting point of 192 °C.
As for `CCCC(C)Oc1ccc(C(=O)O)cc1` (configuration not stated), the figure is 67 to 68.8 °C; as for `O=c1[nH]c2c(c3nc(-c4ccccc4F)cn13)CNCC2`, over 310 °C.
On to `COc1cc(C=O)c(C)c(OC)c1`, for which the melting point lay in the range of 63.4 to 65.1 °C.
Compound `Cc1nc2nc(-c3ccc(Cl)cc3)nn2c(=S)n1C` gave a melting point of over 300 °C.
As for `CC(=Cc1ccccc1)c1ccc2c(c1)SCC(C)(C)CS2`, the figure is 45 to 48 °C.
In turn, `CCCC1CCC2C3CCc4cc(O)ccc4C3CCC12C` (configuration not stated) yielded a melting point of 130 to 131 °C.
Turning to `CC(C)n1nc(-c2sc(NC(=O)N3CCOCC3)nc2-c2ccccc2)ccc1=O`, the melting point was in the range of 231 to 232 °C.
For the compound `Cc1cccc2nc(C(S)c3ncnc4[nH]cnc34)n(-c3ccccc3Cl)c(=O)c12` (configuration not stated), the melting point lay in the range of 228 to 230 °C.
Compound `CS(=O)(=O)N1CC(CN2CCCC2)Cc2ccccc21` (configuration not stated) yielded a melting point of 72 to 73 °C.
The compound `Cc1ccc(S(=O)(=S)OCc2ccccc2)cc1` (configuration not stated) registered a melting point of 52 to 56.5 °C.
Turning to `O=C(O)C(O)COc1ccc(Cl)cc1` (configuration not stated), the melting point was 135 to 136 °C.
For `Oc1ccc2c(ccn2Cc2ccncc2)c1`, the melting point is 185 to 186 °C.
In the case of `CCCCOC(=O)c1ccc(F)nc1N`, the melting point is 132 to 134 °C.
The compound `C(C#Cc1c2ccccc2cc2ccccc12)#Cc1c2ccccc2cc2ccccc12` registered a melting point of 280 to 282 °C.
`COC(=O)CCC(C(=O)C=Cc1ccc(O)c(OC(F)(F)F)c1)C(=O)C=Cc1ccc(O)c(OC(F)(F)F)c1` (configuration not stated) had a melting point of 142 to 143 °C.
`Cn1nc(N)nc1NCCSCc1cccc(CN2CCCCC2)c1` returned a melting point of 92 to 93 °C.
Take `COc1ccccc1C1=C(C#N)C(c2ccccc2OC)c2c[nH]nc2N1` (configuration not stated): the melting point came out at 220 °C.
For `CCOC(=O)c1nc(C)n2c1CN=C(c1ccccc1Cl)c1cc([N+](=O)[O-])ccc1-2`, the melting point lay in the range of 233 to 234 °C.
Consider `CN(C)c1cc(C(OC(=O)C(Cl)(Cl)Cl)c2ccccc2)c([N+](=O)[O-])cc1[N+](=O)[O-]` (configuration not stated), for which the melting point lay within 91 to 92 °C.
For the compound `O=C(c1ccc(F)c(F)c1)N1CCC[C@H](c2nc(-c3ccc([N+](=O)[O-])cc3)no2)C1`, the melting point fell in the range of 138 to 140 °C.
In turn, `CC(C)c1cnc(NC(=O)Nc2cccc(I)c2)s1` showed a melting point of 90 to 92 °C.
`CC(C)c1ccc2c(c1)C(O)(c1ccccn1)CC(C)(C)CO2` (configuration not stated) came in with a melting point of 72 °C.
Turning to `CCCC(=Cc1ccccc1)CN1CCc2nc(N)sc2CC1`, the melting point was in the range of 77 to 80 °C.
In turn, `CC(C)(C)c1cccc(S(=O)(=O)n2c(Cc3ccc(CNS(C)(=O)=O)cc3)cc3cc(C(F)(F)F)ccc32)c1` gave a melting point of 96 °C.
As for `C=CCOC(=O)c1ccc(NC(=O)C(C(=O)OC)c2ccc3c(c2)C(C)(C)CCC3(C)C)cc1` (configuration not stated), the figure is 155 to 156 °C; as for `CC1=C(OS(=O)(=O)c2ccc(C)cc2)C(=O)C(C)O1` (configuration not stated), 70 to 72 °C.
`CC(C)(C)OC(=O)N1Cc2ccc(COc3cccc4c3CN(C3CCC(=O)NC3=O)C4=O)cc2C1` (configuration not stated) had a melting point of 178 to 180 °C.
As for `Cc1ccc(S(=O)(=O)NC2(C)c3ccccc3C=Cc3ccccc32)cc1`, the figure is 175 to 178 °C; as for `CCOc1cc(N(CC)CC)ccc1C(=O)c1nc2ccccc2nc1C(=O)O`, 175 to 176 °C.
For the compound `N#CC(c1ccc(C(O)C(Cc2cccc(OC(F)(F)C(F)F)c2)NC(=O)c2cccc3c2C=CCCC3)cc1)N1CCCCC1` (racemic), the melting point lay within 152 to 154 °C.
In the case of `COc1ncccc1NC(=NC#N)NC(NC(=O)c1ccc(Cl)cc1)C(C)(Cl)Cl` (configuration not stated), the melting point fell in the range of 155 to 156 °C.
`Cc1noc(CC(N)=O)n1` returned a melting point of 77 to 77.5 °C.
On to `COc1ccc(CNC(=O)c2ccc(Cl)cc2OCC(=O)O)cc1`, for which the melting point was 178 to 179 °C.
In turn, `O=C(O)c1ncn2c1[C@@H]1CCN1C(=O)c1cc(F)ccc1-2` gave a melting point of 159 to 160 °C.
As for `CCNc1c([N+](=O)[O-])cc2c(=O)c(C(=O)O)cn(-c3cc(N)c(F)cc3F)c2c1C`, the melting point lay in the range of 250 to 254 °C.
